Reference: patent US20200131669A1, “CYCLIC PEPTIDE COMPOUND HAVING HIGH MEMBRANE PERMEABILITY, AND LIBRARY CONTAINING SAME” (Chugai Seiyaku Kabushiki Kaisha, priority 2017, published 2020)
Starred links: 1 amine or outer side, 2 acyl side, 3 side chain; linkers in the order of their positions; H or OH if unused. Positions of bridges follow the written chain, without caps; N, C: chain ends. Non-standard residues stand in square brackets, D forms with d. Residues, ends and D or L forms follow the SMILES beside them. ξ: configuration not given here. *: point of attachment. X17 = O=C([C@H](CCCC(O)C(F)(F)F)N[*:1])[*:2]; hPhe(3-Cl) = N[C@@H](CCc1cccc(Cl)c1)C(=O)O; NMeF = CN[C@@H](Cc1ccccc1)C(=O)O; NMeGABA = CN(CCCC(=O)[*:2])[*:1]; NMeI = CC[C@H](C)[C@H](NC)C(=O)O; dNMeF = CN[C@H](Cc1ccccc1)C(=O)O; hPhe = N[C@@H](CCc1ccccc1)C(=O)O; CH2CH(OH)CF3 = OC(C*)C(F)(F)F; NMeL = CN[C@@H](CC(C)C)C(=O)O; dNMeL = CN[C@H](CC(C)C)C(=O)O; Propyl(2R-OH) = C[C@@H](O)C*; NMeV = CN[C@H](C(=O)O)C(C)C; NMeAbu = CC[C@H](NC)C(=O)O; NMeA = CN[C@@H](C)C(=O)O; Piperidide = C1CCN(*)CC1; NBuGly = CCCCNCC(=O)O; X11 = FC(F)C(F)(F)C*; Ethyl(2-OH) = OCC*; X2 = Fc1cncc(C*)c1; Bn = c1ccc(C*)cc1; ξS = NC(CO)C(=O)O; Sar = CNCC(=O)O; tBu = CC(C)(C)*

tested on: not listed separately; experiment: Caco-2 membrane permeability, improved method as used in the following Examples (96-well, 20 to 24 h preincubation); assay type: in vitro ADME; conditions: Caco-2, Caco-2
How it was run: (§1)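 Caco-2 monolayers were grown three weeks and preincubated 20–24 h at 37 °C with compound in DMEM+FaSSIF (1% DMSO) apically. The assay then used compound in FaSSIF/HBSS (1% DMSO, pH 6.0) apically and HBSS with 4% BSA (pH 7.4) basally. Basal samples were taken at 180 min for LC/MS, and Papp (cm/sec) was calculated.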

SMILES | Papp A→B
CC[C@H](C)[C@@H]1NC(=O)[C@H](CC(C)C)N(C)C(=O)[C@H](CCCC(O)C(F)(F)F)NC(=O)[C@H](Cc2ccccc2)N(C)C(=O)CN(C)C(=O)C[C@@H](C(=O)N2CCCCC2)NC(=O)[C@H](CC(C)C)N(C)C(=O)[C@H](COC(C)(C)C)NC(=O)[C@H](CC(C)C)N(C)C(=O)[C@H](Cc2ccccc2)N(C)C(=O)CN(C)C1=O (stereo partly drawn) [pd502] ([Sar][NMeF][X17][NMeL]I[Sar][NMeF][NMeL]S(tBu)[NMeL]D-Piperidide; lactam N-11) | 1 ×10⁻⁶ cm/s

same assay, conditions: human, Caco-2, Caco-2

SMILES | Papp A→B at 180 min
CC(C)C[C@H]1C(=O)N[C@@H](C(C)C)C(=O)N(C)[C@@H](Cc2ccccc2)C(=O)N(C)[C@@H](Cc2ccccc2)C(=O)N[C@@H](COC(C)(C)C)C(=O)N(C)[C@@H](CC(C)C)C(=O)N[C@@H](COC[C@@H](C)O)C(=O)N(C)[C@@H](CC(C)C)C(=O)N(C)[C@@H](CC(C)C)C(=O)N[C@H](C(=O)N2CCCCC2)CC(=O)N(C)CCCC(=O)N1C [pd493] ([NMeGABA][NMeL]V[NMeF][NMeF]S(tBu)[NMeL]S(Propyl(2R-OH))[NMeL][NMeL]D-Piperidide; lactam N-11) | 1.3 ×10⁻⁶ cm/s
CC[C@H](C)[C@H]1C(=O)N[C@@H](COC[C@@H](C)O)C(=O)N(C)CC(=O)N(C)[C@@H](CC(C)C)C(=O)N[C@H](C(=O)N2CCCCC2)CC(=O)N(C)[C@@H](C)C(=O)N[C@@H](CC(C)C)C(=O)N(C)[C@@H](CC(C)C)C(=O)N(C)[C@@H](Cc2ccccc2)C(=O)N[C@@H](CC(C)C)C(=O)N(C)[C@@H](Cc2ccccc2)C(=O)N1C [pd494] ([NMeA]L[NMeL][NMeF]L[NMeF][NMeI]S(Propyl(2R-OH))[Sar][NMeL]D-Piperidide; lactam N-11) | 5.2 ×10⁻⁶ cm/s
CC[C@H](C)[C@H]1C(=O)N[C@@H](C(C)C)C(=O)N(C)CC(=O)N(C)[C@@H](CC(C)C)C(=O)N[C@H](C(=O)N2CCCCC2)CC(=O)N(C)[C@@H](C)C(=O)N[C@@H](COC[C@@H](C)O)C(=O)N(C)[C@H](CC(C)C)C(=O)N(C)[C@@H](Cc2ccccc2)C(=O)N[C@@H](CC(C)C)C(=O)N(C)[C@@H](Cc2ccccc2)C(=O)N1C [pd495] ([NMeA]S(Propyl(2R-OH))[dNMeL][NMeF]L[NMeF][NMeI]V[Sar][NMeL]D-Piperidide; lactam N-11) | 3.7 ×10⁻⁶ cm/s
CCCCN1CC(=O)N(C)[C@H](Cc2ccccc2)C(=O)N(C)[C@@H](CC(C)C)C(=O)N[C@@H](COC(C)(C)C)C(=O)N(C)[C@@H](CC(C)C)C(=O)N[C@H](C(=O)N2CCCCC2)CC(=O)N(C)CC(=O)N(C)[C@@H](Cc2ccccc2)C(=O)N[C@@H](C(C)C)C(=O)N(C)[C@@H](CC(C)C)C(=O)N[C@@H](COC[C@@H](C)O)C1=O [pd496] ([Sar][NMeF]V[NMeL]S(Propyl(2R-OH))[NBuGly][dNMeF][NMeL]S(tBu)[NMeL]D-Piperidide; lactam N-11) | 1 ×10⁻⁶ cm/s
CC[C@H](C)[C@@H]1NC(=O)[C@H](CC(C)C)N(C)C(=O)[C@H](COC[C@@H](C)O)NC(=O)[C@H](Cc2ccccc2)N(C)C(=O)CN(C)C(=O)C[C@@H](C(=O)N2CCCCC2)NC(=O)[C@H](CC(C)C)N(C)C(=O)[C@H](COC(C)(C)C)NC(=O)[C@H](CC(C)C)N(C)C(=O)[C@H](Cc2ccccc2)N(C)C(=O)CN(C)C1=O [pd497] ([Sar][NMeF]S(Propyl(2R-OH))[NMeL]I[Sar][NMeF][NMeL]S(tBu)[NMeL]D-Piperidide; lactam N-11) | 3.3 ×10⁻⁶ cm/s
CC[C@H](C)[C@H]1C(=O)N[C@@H](COCCO)C(=O)N(C)CC(=O)N(C)[C@@H](CC(C)C)C(=O)N[C@H](C(=O)N2CCCCC2)CC(=O)N(C)[C@@H](C)C(=O)N[C@@H](CC(C)C)C(=O)N(C)[C@@H](CC(C)C)C(=O)N(C)[C@@H](Cc2ccccc2)C(=O)N[C@@H](CC(C)C)C(=O)N(C)[C@@H](Cc2ccccc2)C(=O)N1C [pd499] ([NMeA]L[NMeL][NMeF]L[NMeF][NMeI]S(Ethyl(2-OH))[Sar][NMeL]D-Piperidide; lactam N-11) | 4.7 ×10⁻⁶ cm/s
CC[C@H](C)[C@H]1C(=O)N[C@@H](C(C)C)C(=O)N(C)CC(=O)N(C)[C@@H](CC(C)C)C(=O)N[C@H](C(=O)N2CCCCC2)CC(=O)N(C)[C@@H](C)C(=O)N[C@@H](COCCO)C(=O)N(C)[C@H](CC(C)C)C(=O)N(C)[C@@H](Cc2ccccc2)C(=O)N[C@@H](CC(C)C)C(=O)N(C)[C@@H](Cc2ccccc2)C(=O)N1C [pd500] ([NMeA]S(Ethyl(2-OH))[dNMeL][NMeF]L[NMeF][NMeI]V[Sar][NMeL]D-Piperidide; lactam N-11) | 2.2 ×10⁻⁶ cm/s
CC[C@H]1C(=O)N(C)[C@@H](Cc2ccccc2)C(=O)N[C@@H](CC(C)C)C(=O)N(C)[C@@H](Cc2ccccc2)C(=O)N(C)[C@@H](C(C)C)C(=O)N[C@@H](COCC(O)C(F)(F)F)C(=O)N(C)CC(=O)N(C)[C@@H](CC(C)C)C(=O)N[C@H](C(=O)N2CCCCC2)CC(=O)N(C)[C@@H](C)C(=O)N[C@@H](CC(C)C)C(=O)N1C (stereo partly drawn) [pd503] ([NMeA]L[NMeAbu][NMeF]L[NMeF][NMeV]S(CH2CH(OH)CF3)[Sar][NMeL]D-Piperidide; lactam N-11) | 2 ×10⁻⁶ cm/s
CC[C@H](C)[C@@H]1NC(=O)[C@H](CC(C)C)N(C)C(=O)[C@H](COCC(O)C(F)(F)F)NC(=O)[C@H](Cc2ccccc2)N(C)C(=O)CN(C)C(=O)C[C@@H](C(=O)N2CCCCC2)NC(=O)[C@H](CC(C)C)N(C)C(=O)[C@H](COC(C)(C)C)NC(=O)[C@H](CC(C)C)N(C)C(=O)[C@H](Cc2ccccc2)N(C)C(=O)CN(C)C1=O (stereo partly drawn) [pd504] ([Sar][NMeF]S(CH2CH(OH)CF3)[NMeL]I[Sar][NMeF][NMeL]S(tBu)[NMeL]D-Piperidide; lactam N-11) | 4.1 ×10⁻⁶ cm/s

tested on: Caco-2 cells; experiment: as above; assay type: in vitro ADME; conditions: human, Caco-2, 180 min
How it was run: as §1

SMILES | Caco-2
CC[C@H](C)[C@@H]1NC(=O)[C@H](Cc2ccccc2)N(C)C(=O)CN(C)C(=O)C[C@@H](C(=O)N2CCCCC2)NC(=O)[C@H]([C@@H](C)CC)N(C)C(=O)C(COCc2ccccc2)NC(=O)[C@H](CC(C)C)N(C)C(=O)[C@H](Cc2ccccc2)N(C)C(=O)CN(C)C(=O)[C@H]([C@@H](C)O)NC(=O)[C@H](CC(C)C)N(C)C1=O (stereo partly drawn) [pd178] ([Sar][NMeF]I[NMeL]T[Sar][NMeF][NMeL][ξS](Bn)[NMeI]D-Piperidide; lactam N-11) | 2.5e-06 cm/s
CC(C)C[C@H]1C(=O)N[C@@H](COC(C)(C)C)C(=O)N(C)[C@@H](Cc2ccccc2)C(=O)N(C)[C@@H](C(C)C)C(=O)N[C@H](C(=O)N2CCCCC2)CC(=O)N[C@H](C)C(=O)N(C)[C@@H](Cc2ccccc2)C(=O)NC(COc2cccc(Cl)c2)C(=O)N(C)[C@@H](C(C)C)C(=O)N[C@@H]([C@@H](C)O)C(=O)N(C)CC(=O)N1C (stereo partly drawn) [pd185] | 2.2e-06 cm/s
CC[C@H](C)[C@H]1C(=O)N[C@@H]([C@@H](C)O)C(=O)N(C)CC(=O)N(C)[C@@H](C)C(=O)N[C@H](C(=O)N2CCCCC2)CC(=O)N(C)[C@@H](C)C(=O)N[C@@H](C(C)C)C(=O)N(C)[C@@H](CC(C)C)C(=O)N(C)[C@@H](Cc2ccccc2)C(=O)NC(COc2cccc(Cl)c2)C(=O)N(C)[C@@H](Cc2ccccc2)C(=O)N1C (stereo partly drawn) [pd186] | 1.8e-06 cm/s
CC[C@H](C)[C@H]1C(=O)N[C@@H]([C@@H](C)O)C(=O)N(C)CC(=O)N(C)[C@@H](CC(C)C)C(=O)N[C@H](C(=O)N2CCCCC2)CC(=O)N(C)[C@@H](C)C(=O)NC(COc2cccc(Cl)c2)C(=O)N(C)[C@@H](CC(C)C)C(=O)N(C)[C@@H](Cc2ccccc2)C(=O)N[C@@H](C)C(=O)N(C)[C@@H](Cc2ccccc2)C(=O)N1C (stereo partly drawn) [pd188] | 1.3e-06 cm/s
CC(C)C[C@H]1C(=O)N[C@H](C(=O)N2CCCCC2)CC(=O)N[C@H](C)C(=O)N(C)[C@@H](CC(C)C)C(=O)N[C@@H](COC(C)(C)C)C(=O)N(C)[C@@H](C)C(=O)N(C)[C@@H](CC(C)C)C(=O)N(C)[C@@H](C)C(=O)N[C@@H]([C@@H](C)O)C(=O)N(C)[C@@H](Cc2ccccc2)C(=O)N[C@@H](CCc2ccccc2)C(=O)N1C [pd309] ([dA][NMeL]S(tBu)[NMeA][NMeL][NMeA]T[NMeF][hPhe][NMeL]D-Piperidide; lactam N-11) | 1.1e-06 cm/s
CC[C@H](C)[C@H]1C(=O)N[C@@H]([C@@H](C)O)C(=O)N(C)CC(=O)N(C)[C@@H](CC(C)C)C(=O)N[C@H](C(=O)N2CCCCC2)CC(=O)N(C)[C@@H](C(C)C)C(=O)N[C@@H](COCc2cncc(F)c2)C(=O)N(C)[C@@H](CC(C)C)C(=O)N(C)[C@@H](Cc2ccccc2)C(=O)N[C@@H](CC(C)C)C(=O)N(C)[C@@H](Cc2ccccc2)C(=O)N1C [pd347] ([NMeV]S(X2)[NMeL][NMeF]L[NMeF][NMeI]T[Sar][NMeL]D-Piperidide; lactam N-11) | 1.1e-06 cm/s
CC[C@H](C)[C@H]1C(=O)N[C@@H]([C@@H](C)O)C(=O)N(C)CC(=O)N(C)[C@@H](CC(C)C)C(=O)N[C@H](C(=O)N2CCCCC2)CC(=O)N(C)[C@@H](C)C(=O)N[C@@H](CC(C)C)C(=O)N(C)[C@@H](CC(C)C)C(=O)N(C)[C@@H](Cc2ccccc2)C(=O)N[C@@H](COCC(F)(F)C(F)F)C(=O)N(C)[C@@H](Cc2ccccc2)C(=O)N1C [pd348] ([NMeA]L[NMeL][NMeF]S(X11)[NMeF][NMeI]T[Sar][NMeL]D-Piperidide; lactam N-11) | 1.1e-06 cm/s
CC[C@H](C)[C@@H]1NC(=O)[C@H](Cc2ccccc2)N(C)C(=O)CN(C)C(=O)C[C@@H](C(=O)N2CCCCC2)NC(=O)[C@H](C(C)C)N(C)C(=O)[C@H](CCc2cccc(Cl)c2)NC(=O)[C@H](CC(C)C)N(C)C(=O)[C@H](CC(C)C)N(C)C(=O)CN(C)C(=O)[C@H]([C@@H](C)O)NC(=O)[C@H](CC(C)C)N(C)C1=O [pd358] ([Sar][NMeF]I[NMeL]T[Sar][NMeL][NMeL][hPhe(3-Cl)][NMeV]D-Piperidide; lactam N-11) | 1.1e-06 cm/s
